Laboratory results taken from patent publication US20190358181A1, “METHODS FOR AUTISM SPECTRUM DISORDER PHARMACOTHERAPY” (priority 2017, published 2019).

System: 610 metabolites from 63 biochemical pathways
Experiment: Targeted broad-spectrum plasma metabolomic analysis (LC-MS/MS), paired pre-infusion vs post-infusion (2-days and 6-weeks)
Type: in vivo, human
Conditions: plasma, 2-days after infusion vs pre-infusion
Experimental: Targeted, broad-spectrum, plasma metabolomic analysis of 610 metabolites from 63 biochemical pathways was performed by high performance liquid chromatography and tandem mass spectrometry (LC-MS/MS) on the samples collected from patients in Example 1. Venous blood was collected between the hours of 8 am and 5 pm, at least 3 hours after the last meal, into lithium-heparin vacutainer tubes (BD #367884). Plasma was separated by centrifugation at 900 g×10 minutes at room temperature within one hour of collection. The resulting fresh lithium-heparin plasma was transferred to labeled 1.2 ml or 2.0 ml externally threaded cryotubes with a minimum headspace air gap for storage at −80° C. for analysis. Samples were analyzed on an AB SCIEX QTRAP 5500 triple quadrupole mass spectrometer equipped with a Turbo V electrospray ionization (ESI) source, Shimadzu LC-20A UHPLC system, and a PAL CTC autosampler. Typically, 90 μl of plasma was thawed on ice and transferred to a 1.7 ml Eppendorf tube. Five (5.0) μl of a cocktail containing 25-35 commercial stable isotope internal standards, and 5.0 μl of 57 stable isotope internal standards that were custom-synthesized in E. coli NCM3722, Caenorhabditis elegans N2, and Komagataella phaffii (ATCC 76273; formerly known as Pichia pastoris) by metabolic labeling with 13C-glucose and 13C-bicarbonate, were added, mixed, and incubated for 10 min at 20° C. to permit small molecules and vitamins in the internal standards to associate with plasma binding proteins. Macromolecules (protein, DNA, RNA, glycans, etc.) were precipitated by extraction with 4 volumes (400 μl) of cold (−20° C.), acetonitrile:methanol (50:50) (LCMS grade, Cat #LC015-2.5 and GC230-4, Burdick & Jackson, Honeywell), vortexed vigorously, and incubated on crushed ice for 10 min, then removed by centrifugation at 16,000 g×10 min at 4° C. The supernatants containing the extracted metabolites and internal standards in the resulting 40:40:20 solvent mix of acetonitrile:methanol:water were transferred to labeled cryotubes and stored at −80° C. for LCMS/MS analysis.
LC-MS/MS analysis was performed by scheduled multiple reaction monitoring (sMRM) under Analyst v1.6.2 software control in both negative and positive mode with rapid polarity switching (50 ms). Nitrogen was used for curtain gas (set to 30), collision gas (set to high), ion source gas 1 and 2 (set to 35). The source temperature was 500° C. Spray voltage was set to −4500 V in negative mode and 5500 V in positive mode. The values for Q1 and Q3 mass-to-charge ratios (m/z), declustering potential (DP), entrance potential (EP), collision energy (CE), and collision cell exit potential (CXP) were determined and optimized for each MRM for each metabolite. Ten microliters of extract was injected by PAL CTC autosampler via a 10 μl stainless steel loop into a 250 mm×2.0 mm, 4 μm polymer based NH2 HPLC column (Asahipak NH2P-40 2E, Showa Denko America, Inc., NY) held at 25° C. for chromatographic separation. The mobile phase was solvent A: 95% water with 20 mM (NH4)2CO3 (Sigma, Fluka Cat #74415-250G-F), 5% acetonitrile, and 38 mM NH4OH (Sigma, Fluka Cat #17837-100ML), final pH 9.75; solvent B: 100% acetonitrile. Separation was achieved using the following gradient: 0-3.5 min: 95% B, 3.6-8 min: 85% B, 8.1-13 min: 75% B, 13.5-35 min: 0% B, 36-46 min: 95% B, 46.1 min: end. The flow rate was 200 μl/min. Pump pressures ranged from 920-2600 psi over the course of the gradient. All the samples were kept at 4° C. during analysis. The chromatographic peaks were identified using MultiQuant (v3.0, Sciex), confirmed by manual inspection, and the peak areas integrated. […]

[1] = Cholesterol, Cortisol, Non-Gonadal Steroid Metabolism
[2] = Eicosanoid and Resolvin Metabolism
[3] = Fatty Acid Oxidation and Synthesis
[4] = GABA, Glutamate, Arginine, Ornithine, Proline Metabolism
[5] = Gamma-Glutamyl and other Dipeptides
[6] = Glycolysis and Gluconeogenesis Metabolism
[7] = Histidine, Histamine, Carnosine Metabolism
[8] = Nitric Oxide, Superoxide, Peroxide Metabolism

Question: What does the source list for `Cc1ccc(C(=O)Nc2ccc(S(=O)(=O)O)c3cc(S(=O)(=O)O)cc(S(=O)(=O)O)c23)cc1NC(=O)c1cccc(NC(=O)Nc2cccc(C(=O)Nc3cc(C(=O)Nc4ccc(S(=O)(=O)O)c5cc(S(=O)(=O)O)cc(S(=O)(=O)O)c45)ccc3C)c2)c1` [Suramin, suramin]?
Answer: Z Abs, Ceramide(d18:1/18:2) (Ceramide Metabolism): 0.530; Z Score, Ceramide(d18:1/18:2) (Ceramide Metabolism): 0.530; Linear Ratio, 24,25-Epoxycholesterol [1]: 1.362; VIP Score, 24,25-Epoxycholesterol [1]: 1.807; Z Abs, 24,25-Epoxycholesterol [1]: 1.014; Z Score, 24,25-Epoxycholesterol [1]: 1.014; Linear Ratio, 5-HETE [2]: 0.866; Linear Ratio, 11(R)-HETE [2]: 0.748; Linear Ratio, 11,12-Epoxyeicosatrienoic acid [2]: 0.828; Linear Ratio, Prostaglandin J2 [2]: 0.649; VIP Score, 5-HETE [2]: 1.646; VIP Score, 11(R)-HETE [2]: 2.400; VIP Score, 11,12-Epoxyeicosatrienoic acid [2]: 1.535; VIP Score, Prostaglandin J2 [2]: 1.509; Z Abs, 5-HETE [2]: 0.671; Z Abs, 11(R)-HETE [2]: 0.875; Z Abs, 11,12-Epoxyeicosatrienoic acid [2]: 0.634; Z Abs, Prostaglandin J2 [2]: 0.601; Z Score, 5-HETE [2]: −0.671; Z Score, 11(R)-HETE [2]: −0.875; Z Score, 11,12-Epoxyeicosatrienoic acid [2]: −0.634; Z Score, Prostaglandin J2 [2]: −0.601; Linear Ratio, Anandamide (Endocannabinoid Metabolism): 0.684; VIP Score, Anandamide (Endocannabinoid Metabolism): 1.713; Z Abs, Anandamide (Endocannabinoid Metabolism): 0.709; Z Score, Anandamide (Endocannabinoid Metabolism): −0.709; Linear Ratio, Malonic acid [3]: 0.904; VIP Score, Malonic acid [3]: 1.833; Z Abs, Malonic acid [3]: 0.825; Z Score, Malonic acid [3]: −0.825; Linear Ratio, Gamma-Aminobutyric acid [4]: 1.068; Linear Ratio, L-Proline [4]: 1.155; Linear Ratio, N-Acetylglutamic acid [4]: 1.120; VIP Score, Gamma-Aminobutyric acid [4]: 1.626; VIP Score, L-Proline [4]: 1.548; VIP Score, N-Acetylglutamic acid [4]: 1.505; Z Abs, Gamma-Aminobutyric acid [4]: 1.101; Z Abs, L-Proline [4]: 0.603; Z Abs, N-Acetylglutamic acid [4]: 0.613; Z Score, Gamma-Aminobutyric acid [4]: 1.101; Z Score, L-Proline [4]: 0.603; Z Score, N-Acetylglutamic acid [4]: 0.613; Linear Ratio, Gamma-glutamyl-Alanine [5]: 1.294; Linear Ratio, Glycylproline [5]: 1.773; VIP Score, Gamma-glutamyl-Alanine [5]: 1.575; VIP Score, Glycylproline [5]: 2.205; Z Abs, Gamma-glutamyl-Alanine [5]: 0.896; Z Abs, Glycylproline [5]: 1.212; Z Score, Gamma-glutamyl-Alanine [5]: 0.896; Z Score, Glycylproline [5]: 1.212; Linear Ratio, 2,3-Diphosphoglyceric acid [6]: 1.198; Linear Ratio, Glycerol 3-phosphate [6]: 1.187; VIP Score, 2,3-Diphosphoglyceric acid [6]: 2.600; VIP Score, Glycerol 3-phosphate [6]: 1.651; Z Abs, 2,3-Diphosphoglyceric acid [6]: 0.990; Z Abs, Glycerol 3-phosphate [6]: 1.151; Z Score, 2,3-Diphosphoglyceric acid [6]: 0.990; Z Score, Glycerol 3-phosphate [6]: 1.151; Linear Ratio, GC(18:1/22:0) (Glycosphingolipid Metabolism): 1.399; VIP Score, GC(18:1/22:0) (Glycosphingolipid Metabolism): 2.123; Z Abs, GC(18:1/22:0) (Glycosphingolipid Metabolism): 1.057; Z Score, GC(18:1/22:0) (Glycosphingolipid Metabolism): 1.057; Linear Ratio, 1-Methylhistidine [7]: 1.145; VIP Score, 1-Methylhistidine [7]: 1.848; Z Abs, 1-Methylhistidine [7]: 0.899; Z Score, 1-Methylhistidine [7]: 0.899; Linear Ratio, Citramalic acid (Krebs Cycle): 1.121; Linear Ratio, Citric acid (Krebs Cycle): 1.142; VIP Score, Citramalic acid (Krebs Cycle): 1.704; VIP Score, Citric acid (Krebs Cycle): 1.590; Z Abs, Citramalic acid (Krebs Cycle): 1.229; Z Abs, Citric acid (Krebs Cycle): 0.759; Z Score, Citramalic acid (Krebs Cycle): 1.229; Z Score, Citric acid (Krebs Cycle): 0.759; Linear Ratio, 2-Keto-L-gluconate (Microbiome Metabolism): 1.264; Linear Ratio, Indoxyl sulfate (Microbiome Metabolism): 1.280; Linear Ratio, Shikimate-3-phosphate (Microbiome Metabolism): 1.047; Linear Ratio, p-Hydroxyphenylacetic acid (Microbiome Metabolism): 1.192; VIP Score, 2-Keto-L-gluconate (Microbiome Metabolism): 2.994; VIP Score, Indoxyl sulfate (Microbiome Metabolism): 1.858; VIP Score, Shikimate-3-phosphate (Microbiome Metabolism): 1.886; VIP Score, p-Hydroxyphenylacetic acid (Microbiome Metabolism): 2.546; Z Abs, 2-Keto-L-gluconate (Microbiome Metabolism): 2.586; Z Abs, Indoxyl sulfate (Microbiome Metabolism): 0.702; Z Abs, Shikimate-3-phosphate (Microbiome Metabolism): 1.033; Z Abs, p-Hydroxyphenylacetic acid (Microbiome Metabolism): 1.464; Z Score, 2-Keto-L-gluconate (Microbiome Metabolism): 2.586; Z Score, Indoxyl sulfate (Microbiome Metabolism): 0.702; Z Score, Shikimate-3-phosphate (Microbiome Metabolism): 1.033; Z Score, p-Hydroxyphenylacetic acid (Microbiome Metabolism): 1.464; Linear Ratio, Azelaic acid [8]: 0.914; VIP Score, Azelaic acid [8]: 1.929; Z Abs, Azelaic acid [8]: 2.024
